Key:
[1] = molecular target: Megakaryocyte-associated tyrosine-protein kinase (Homo sapiens) (UniProt P42679); conditions: Compound concentration 1000.0 nM
[2] = tested on: Receptor-type tyrosine-protein kinase FLT3 (Homo sapiens), P36888 [UNDEFINED MUTATION]; conditions: Compound concentration 1000.0 nM
[3] = molecular target: Dual specificity protein kinase CLK3 (Homo sapiens) (UniProt P49761); conditions: Compound concentration 1000.0 nM
[4] = molecular target: Interleukin-1 receptor-associated kinase 4 (Homo sapiens) (UniProt Q9NWZ3); conditions: Compound concentration 1000.0 nM
[5] = molecular target: Mitogen-activated protein kinase kinase kinase kinase 5 (Homo sapiens) (UniProt Q9Y4K4); conditions: Compound concentration 1000.0 nM
[6] = molecular target: Inhibitor of nuclear factor kappa-B kinase subunit alpha (Homo sapiens) (UniProt O15111); conditions: Compound concentration 1000.0 nM
[7] = molecular target: Tyrosine-protein kinase BTK (Homo sapiens) (UniProt Q06187); conditions: Compound concentration 1000.0 nM
[8] = molecular target: Calcium-dependent protein kinase 1 (Plasmodium falciparum) (UniProt P62344); conditions: Compound concentration 1000.0 nM
[9] = tested on: Tyrosine-protein kinase ABL1 (Homo sapiens), P00519 [T315I]; conditions: Compound concentration 1000.0 nM
[10] = molecular target: 5-hydroxytryptamine receptor 2A (Homo sapiens) (UniProt P28223); conditions: Compound concentration 10.0 uM
[11] = molecular target: Platelet-derived growth factor receptor beta (Homo sapiens) (UniProt P09619); conditions: Compound concentration 1000.0 nM
[12] = molecular target: Cyclin-dependent kinase 3 (Homo sapiens) (UniProt Q00526); conditions: Compound concentration 1000.0 nM
[13] = molecular target: Dual specificity protein kinase CLK4 (Homo sapiens) (UniProt Q9HAZ1); conditions: Compound concentration 1000.0 nM
[14] = molecular target: Transient receptor potential cation channel subfamily M member 6 (Homo sapiens) (UniProt Q9BX84); conditions: Compound concentration 1000.0 nM
[15] = molecular target: D(3) dopamine receptor (Homo sapiens) (UniProt P35462); conditions: Compound concentration 10.0 uM
[16] = tested on: Tyrosine-protein kinase ABL1 (Homo sapiens), P00519 [F317L]; conditions: Compound concentration 1000.0 nM
[17] = tested on: Epidermal growth factor receptor (Homo sapiens), P00533 [L858R]; conditions: Compound concentration 1000.0 nM
[18] = molecular target: Receptor-type tyrosine-protein kinase FLT3 (Homo sapiens) (UniProt P36888); conditions: Compound concentration 1000.0 nM
[19] = molecular target: T1, Muscarinic acetylcholine receptor M1 (Homo sapiens) (UniProt P11229); conditions: Compound concentration 10.0 uM
T1 sequence (whole entry): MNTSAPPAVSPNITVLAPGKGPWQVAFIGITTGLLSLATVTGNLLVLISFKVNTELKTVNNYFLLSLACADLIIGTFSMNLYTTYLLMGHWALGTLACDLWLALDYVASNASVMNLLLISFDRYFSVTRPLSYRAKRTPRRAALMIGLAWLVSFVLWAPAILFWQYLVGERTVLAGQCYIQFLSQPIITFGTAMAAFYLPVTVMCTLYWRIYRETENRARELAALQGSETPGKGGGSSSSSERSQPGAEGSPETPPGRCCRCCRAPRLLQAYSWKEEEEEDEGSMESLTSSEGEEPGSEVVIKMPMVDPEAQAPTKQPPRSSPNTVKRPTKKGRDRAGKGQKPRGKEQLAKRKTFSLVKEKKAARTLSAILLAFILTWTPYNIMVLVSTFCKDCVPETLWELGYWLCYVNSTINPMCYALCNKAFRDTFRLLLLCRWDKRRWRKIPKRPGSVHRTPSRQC

[20] = molecular target: Casein kinase I isoform alpha (Homo sapiens) (UniProt P48729); conditions: Compound concentration 1000.0 nM
[21] = tested on: Phosphatidylinositol 4,5-bisphosphate 3-kinase catalytic subunit alpha isoform (Homo sapiens), P42336 [H1047Y]; conditions: Compound concentration 1000.0 nM
[22] = molecular target: Tyrosine-protein kinase ABL1 (Homo sapiens) (UniProt P00519); conditions: Compound concentration 1000.0 nM
[23] = molecular target: Serine/threonine-protein kinase PLK2 (Homo sapiens) (UniProt Q9NYY3); conditions: Compound concentration 1000.0 nM
[24] = molecular target: Serine/threonine-protein kinase Nek3 (Homo sapiens) (UniProt P51956); conditions: Compound concentration 1000.0 nM
[25] = molecular target: 3-phosphoinositide-dependent protein kinase 1 (Homo sapiens) (UniProt O15530); conditions: Compound concentration 1000.0 nM
[26] = molecular target: Insulin-like growth factor 1 receptor (Homo sapiens) (UniProt P08069); conditions: Compound concentration 1000.0 nM
[27] = molecular target: Mitogen-activated protein kinase kinase kinase 6 (Homo sapiens) (UniProt O95382); conditions: Compound concentration 1000.0 nM
[28] = molecular target: Vascular endothelial growth factor receptor 3 (Homo sapiens) (UniProt P35916); conditions: Compound concentration 1000.0 nM
[29] = molecular target: Cyclin-dependent kinase-like 1 (Homo sapiens) (UniProt Q00532); conditions: Compound concentration 1000.0 nM
[30] = molecular target: Ephrin type-A receptor 8 (Homo sapiens) (UniProt P29322); conditions: Compound concentration 1000.0 nM
[31] = molecular target: 5-hydroxytryptamine receptor 7 (Homo sapiens) (UniProt P34969); conditions: Compound concentration 10.0 uM
[32] = molecular target: Tyrosine-protein kinase Tec (Homo sapiens) (UniProt P42680); conditions: Compound concentration 1000.0 nM
[33] = molecular target: Receptor-interacting serine/threonine-protein kinase 4 (Homo sapiens) (UniProt P57078); conditions: Compound concentration 1000.0 nM
[34] = molecular target: 5-hydroxytryptamine receptor 3A (Homo sapiens) (UniProt P46098); conditions: Compound concentration 10.0 uM
[35] = molecular target: Serine/threonine-protein kinase WNK3 (Homo sapiens) (UniProt Q9BYP7); conditions: Compound concentration 1000.0 nM
[36] = molecular target: Ribosomal protein S6 kinase alpha-6 (Homo sapiens) (UniProt Q9UK32); conditions: Compound concentration 1000.0 nM
[37] = molecular target: Casein kinase I isoform epsilon (Homo sapiens) (UniProt P49674); conditions: Compound concentration 1000.0 nM
[38] = molecular target: 5-hydroxytryptamine receptor 1B (Homo sapiens) (UniProt P28222); conditions: Compound concentration 10.0 uM
[39] = molecular target: Dual specificity mitogen-activated protein kinase kinase 7 (Homo sapiens) (UniProt O14733); conditions: Compound concentration 1000.0 nM
Sequence of Dual specificity mitogen-activated protein kinase kinase 7 (Homo sapiens) (O14733 whole entry): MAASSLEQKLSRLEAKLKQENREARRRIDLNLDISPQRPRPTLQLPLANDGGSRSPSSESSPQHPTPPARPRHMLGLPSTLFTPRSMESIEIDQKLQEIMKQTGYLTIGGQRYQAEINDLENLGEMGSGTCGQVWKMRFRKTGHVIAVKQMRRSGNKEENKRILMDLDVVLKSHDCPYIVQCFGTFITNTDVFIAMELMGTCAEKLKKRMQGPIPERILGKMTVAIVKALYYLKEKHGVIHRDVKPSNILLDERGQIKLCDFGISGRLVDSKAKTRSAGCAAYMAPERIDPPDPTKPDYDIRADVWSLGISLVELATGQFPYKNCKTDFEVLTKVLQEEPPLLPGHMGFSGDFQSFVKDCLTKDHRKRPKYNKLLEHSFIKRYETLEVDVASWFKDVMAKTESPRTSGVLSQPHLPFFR

Sequence of Mitogen-activated protein kinase kinase kinase kinase 5 (Homo sapiens) (Q9Y4K4 whole entry, looked up): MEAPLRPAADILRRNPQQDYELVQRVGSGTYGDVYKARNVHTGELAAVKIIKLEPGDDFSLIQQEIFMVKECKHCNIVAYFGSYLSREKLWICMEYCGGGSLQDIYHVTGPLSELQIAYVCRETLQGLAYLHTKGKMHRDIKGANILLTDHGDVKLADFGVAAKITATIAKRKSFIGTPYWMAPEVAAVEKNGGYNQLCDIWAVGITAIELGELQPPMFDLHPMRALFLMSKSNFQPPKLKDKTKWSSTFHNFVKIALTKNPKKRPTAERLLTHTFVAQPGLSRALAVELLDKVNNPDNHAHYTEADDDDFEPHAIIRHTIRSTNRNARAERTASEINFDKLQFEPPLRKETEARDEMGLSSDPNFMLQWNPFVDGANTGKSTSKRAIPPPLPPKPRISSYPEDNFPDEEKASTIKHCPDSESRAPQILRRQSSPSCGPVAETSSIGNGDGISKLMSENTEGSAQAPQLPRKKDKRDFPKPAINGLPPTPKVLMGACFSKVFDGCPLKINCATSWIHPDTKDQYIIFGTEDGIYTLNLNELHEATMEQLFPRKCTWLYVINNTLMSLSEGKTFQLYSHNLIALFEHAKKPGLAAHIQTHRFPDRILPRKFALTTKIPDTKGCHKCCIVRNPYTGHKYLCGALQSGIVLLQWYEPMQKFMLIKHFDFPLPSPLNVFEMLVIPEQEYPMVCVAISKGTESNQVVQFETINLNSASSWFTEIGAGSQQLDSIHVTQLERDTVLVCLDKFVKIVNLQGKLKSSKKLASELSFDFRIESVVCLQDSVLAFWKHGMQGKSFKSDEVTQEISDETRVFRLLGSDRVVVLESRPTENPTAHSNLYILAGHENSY
Sequence of Insulin-like growth factor 1 receptor (Homo sapiens) (P08069 31-736 limits assumed): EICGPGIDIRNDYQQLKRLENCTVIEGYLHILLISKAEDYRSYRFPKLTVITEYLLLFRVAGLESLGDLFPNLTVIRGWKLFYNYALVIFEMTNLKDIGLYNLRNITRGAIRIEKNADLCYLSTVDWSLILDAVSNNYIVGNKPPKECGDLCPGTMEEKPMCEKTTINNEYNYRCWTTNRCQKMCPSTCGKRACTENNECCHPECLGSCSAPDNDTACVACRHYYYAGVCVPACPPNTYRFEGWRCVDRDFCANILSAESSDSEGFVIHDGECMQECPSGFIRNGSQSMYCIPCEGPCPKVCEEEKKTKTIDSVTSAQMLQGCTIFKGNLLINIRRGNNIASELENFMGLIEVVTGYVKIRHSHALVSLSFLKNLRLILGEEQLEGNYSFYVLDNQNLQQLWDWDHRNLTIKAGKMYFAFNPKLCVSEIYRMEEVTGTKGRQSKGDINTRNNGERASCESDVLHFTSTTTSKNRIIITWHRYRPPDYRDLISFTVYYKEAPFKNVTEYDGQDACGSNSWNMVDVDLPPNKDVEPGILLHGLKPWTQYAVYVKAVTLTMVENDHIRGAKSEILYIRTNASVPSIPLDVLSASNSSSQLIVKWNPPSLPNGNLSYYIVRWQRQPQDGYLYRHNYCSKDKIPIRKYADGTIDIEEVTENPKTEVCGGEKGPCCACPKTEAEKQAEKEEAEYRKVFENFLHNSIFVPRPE
Sequence of Insulin-like growth factor 1 receptor (Homo sapiens) (P08069 741-1367 limits assumed): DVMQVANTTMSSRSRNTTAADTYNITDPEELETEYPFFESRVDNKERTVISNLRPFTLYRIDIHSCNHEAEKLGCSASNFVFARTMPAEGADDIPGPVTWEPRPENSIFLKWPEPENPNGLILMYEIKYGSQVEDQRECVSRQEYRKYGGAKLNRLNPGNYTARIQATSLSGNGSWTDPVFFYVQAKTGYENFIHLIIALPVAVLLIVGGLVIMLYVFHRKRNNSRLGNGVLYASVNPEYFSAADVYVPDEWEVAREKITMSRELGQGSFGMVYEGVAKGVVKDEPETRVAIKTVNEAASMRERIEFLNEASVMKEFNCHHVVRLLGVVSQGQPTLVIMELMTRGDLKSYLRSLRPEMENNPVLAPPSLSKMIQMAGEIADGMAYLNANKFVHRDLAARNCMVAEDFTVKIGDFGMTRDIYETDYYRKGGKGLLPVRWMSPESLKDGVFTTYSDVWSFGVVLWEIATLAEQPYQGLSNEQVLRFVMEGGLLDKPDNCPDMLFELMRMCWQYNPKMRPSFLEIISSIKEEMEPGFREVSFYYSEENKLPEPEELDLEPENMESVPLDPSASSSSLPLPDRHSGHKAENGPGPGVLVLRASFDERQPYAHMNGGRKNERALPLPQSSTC
Sequence of Vascular endothelial growth factor receptor 3 (Homo sapiens) (P35916 whole entry): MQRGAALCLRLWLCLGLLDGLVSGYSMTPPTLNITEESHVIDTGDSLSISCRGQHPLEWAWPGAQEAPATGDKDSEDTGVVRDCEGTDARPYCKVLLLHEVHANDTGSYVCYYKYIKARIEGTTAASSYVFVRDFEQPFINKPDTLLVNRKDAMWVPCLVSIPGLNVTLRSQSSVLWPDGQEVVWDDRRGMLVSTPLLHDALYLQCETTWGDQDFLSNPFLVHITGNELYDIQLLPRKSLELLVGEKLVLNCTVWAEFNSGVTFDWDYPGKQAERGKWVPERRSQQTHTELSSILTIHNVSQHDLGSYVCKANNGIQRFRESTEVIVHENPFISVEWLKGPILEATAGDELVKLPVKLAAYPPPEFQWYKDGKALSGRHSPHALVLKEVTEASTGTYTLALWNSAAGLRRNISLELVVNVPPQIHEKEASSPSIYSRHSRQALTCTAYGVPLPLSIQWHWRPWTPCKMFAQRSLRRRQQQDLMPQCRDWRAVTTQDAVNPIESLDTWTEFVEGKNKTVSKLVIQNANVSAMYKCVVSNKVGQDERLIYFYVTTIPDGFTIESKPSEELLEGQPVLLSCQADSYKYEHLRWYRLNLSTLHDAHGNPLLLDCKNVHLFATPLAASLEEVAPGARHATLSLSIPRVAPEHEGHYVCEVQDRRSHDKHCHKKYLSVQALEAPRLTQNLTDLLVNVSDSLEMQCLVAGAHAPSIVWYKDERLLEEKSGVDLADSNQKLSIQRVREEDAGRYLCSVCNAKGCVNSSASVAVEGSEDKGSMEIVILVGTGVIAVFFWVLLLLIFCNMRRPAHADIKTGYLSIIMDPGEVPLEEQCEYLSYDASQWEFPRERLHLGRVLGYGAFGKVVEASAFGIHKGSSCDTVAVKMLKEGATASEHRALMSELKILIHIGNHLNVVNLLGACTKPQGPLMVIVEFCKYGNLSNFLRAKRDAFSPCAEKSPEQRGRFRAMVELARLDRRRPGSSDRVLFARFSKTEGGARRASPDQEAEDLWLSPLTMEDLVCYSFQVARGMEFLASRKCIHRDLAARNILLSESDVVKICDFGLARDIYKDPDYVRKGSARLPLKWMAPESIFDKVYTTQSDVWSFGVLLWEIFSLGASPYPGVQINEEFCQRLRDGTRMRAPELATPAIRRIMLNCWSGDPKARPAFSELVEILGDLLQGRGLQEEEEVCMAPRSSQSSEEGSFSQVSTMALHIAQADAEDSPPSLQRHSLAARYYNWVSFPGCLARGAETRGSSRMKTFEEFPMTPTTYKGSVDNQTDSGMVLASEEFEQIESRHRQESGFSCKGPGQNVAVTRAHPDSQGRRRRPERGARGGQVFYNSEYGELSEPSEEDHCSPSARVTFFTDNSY
Sequence of Ribosomal protein S6 kinase alpha-6 (Homo sapiens) (Q9UK32 whole entry, canonical isoform): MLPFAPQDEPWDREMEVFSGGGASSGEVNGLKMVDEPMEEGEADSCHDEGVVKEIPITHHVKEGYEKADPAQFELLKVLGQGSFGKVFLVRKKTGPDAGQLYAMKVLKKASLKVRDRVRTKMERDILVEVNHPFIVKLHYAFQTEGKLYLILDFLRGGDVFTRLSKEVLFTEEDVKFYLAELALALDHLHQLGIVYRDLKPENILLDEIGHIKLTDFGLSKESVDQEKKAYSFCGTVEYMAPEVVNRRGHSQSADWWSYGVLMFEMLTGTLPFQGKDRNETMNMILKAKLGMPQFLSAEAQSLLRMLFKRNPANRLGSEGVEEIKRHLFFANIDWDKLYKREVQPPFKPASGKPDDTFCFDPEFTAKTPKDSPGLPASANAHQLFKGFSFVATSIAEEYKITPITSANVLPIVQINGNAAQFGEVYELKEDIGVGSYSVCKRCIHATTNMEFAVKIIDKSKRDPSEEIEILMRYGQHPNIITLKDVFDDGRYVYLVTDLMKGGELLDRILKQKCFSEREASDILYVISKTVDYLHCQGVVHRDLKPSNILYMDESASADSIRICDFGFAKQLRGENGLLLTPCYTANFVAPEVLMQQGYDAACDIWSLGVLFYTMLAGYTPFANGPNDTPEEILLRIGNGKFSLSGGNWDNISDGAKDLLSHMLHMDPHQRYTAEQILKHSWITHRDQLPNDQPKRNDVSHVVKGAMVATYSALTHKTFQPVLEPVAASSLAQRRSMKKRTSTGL
Sequence of Cyclin-dependent kinase 3 (Homo sapiens) (Q00526 whole entry, looked up): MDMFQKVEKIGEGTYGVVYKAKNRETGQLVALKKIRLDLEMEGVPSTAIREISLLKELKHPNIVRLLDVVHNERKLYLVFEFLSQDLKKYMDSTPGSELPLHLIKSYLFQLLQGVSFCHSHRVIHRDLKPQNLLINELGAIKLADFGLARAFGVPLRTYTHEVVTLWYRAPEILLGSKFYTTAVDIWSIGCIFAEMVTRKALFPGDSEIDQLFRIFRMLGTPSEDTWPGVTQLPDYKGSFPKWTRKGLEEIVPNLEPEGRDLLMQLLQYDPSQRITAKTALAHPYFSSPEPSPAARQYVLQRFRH

NS(=O)(=O)c1cc(NC(=O)C2(c3ccccc3Cl)CC2)ccc1Oc1cccc(Cl)c1 [BAY-207]
inactive: residual activity [1] 100% | residual activity [2] 100% | residual activity [3] 72% | residual activity [4] 61% | residual activity [5] 100% | residual activity [6] 100% | residual activity [7] 88% | residual activity [8] 89% | residual activity [9] 75% | inhibition [10] 11.3% | residual activity [11] 90% | residual activity [12] 90% | residual activity [13] 100% | residual activity [14] 95% | inhibition [15] 10.5% | residual activity [16] 71% | residual activity [17] 79% | residual activity [18] 70% | inhibition [19] -3.55% | residual activity [20] 100% | residual activity [21] 76% | residual activity [22] 88% | residual activity [23] 84% | residual activity [24] 95% | residual activity [25] 85% | residual activity [26] 80% | residual activity [27] 100% | residual activity [28] 67% | residual activity [29] 99% | residual activity [30] 80% | inhibition [31] 17.3% | residual activity [32] 81% | residual activity [33] 100% | inhibition [34] 3.19% | residual activity [35] 78% | residual activity [36] 100% | residual activity [37] 64% | inhibition [38] 4.81% | residual activity [39] 100%

NS(=O)(=O)c1cc(NC(=O)Cc2ccccc2)ccc1Oc1cccc(Cl)c1 [BAY-1797]
inactive: residual activity [1] 68% | residual activity [2] 53% | residual activity [3] 83% | residual activity [4] 91% | residual activity [5] 72% | residual activity [6] 63% | residual activity [7] 76% | residual activity [8] 91% | residual activity [9] 88% | inhibition [10] -2.5% | residual activity [11] 76% | residual activity [12] 92% | residual activity [13] 83% | residual activity [14] 84% | inhibition [15] 0.87% | residual activity [16] 72% | residual activity [17] 85% | residual activity [18] 90% | inhibition [19] 11.4% | residual activity [20] 93% | residual activity [21] 81% | residual activity [22] 75% | residual activity [23] 73% | residual activity [24] 100% | residual activity [25] 95% | residual activity [26] 100% | residual activity [27] 72% | residual activity [28] 79% | residual activity [29] 98% | residual activity [30] 100% | inhibition [31] 35.2% | residual activity [32] 96% | residual activity [33] 83% | inhibition [34] 19.9% | residual activity [35] 78% | residual activity [36] 84% | residual activity [37] 100% | inhibition [38] -2.93% | residual activity [39] 91%
